Test results published in US10532040B2, “Methods of treating cancer with herbacetin” (REGENTS OF THE UNIVERSITY OF MINNESOTA, priority 2011, dated 2020).
Entries after “also recorded” stand apart in the source; their conditions may differ.

Experiments:
[1] = tested on: APC^min+ mice; test: APC^min+ mouse model, 8 weeks; type: in vivo
Excerpt: Male C57BL/6J^(Min/+) mice were obtained from Jackson Laboratory and maintained under “specific pathogen-free” conditions according to the guidelines established by the University of Minnesota Institutional Animal Care and Use Committee. APC^min+ male mice were bred with C57BL/6J APC wildtype female mice. The progeny were genotyped by PCR assay to determine whether they were heterozygous for the min allele or were homozygous wildtype. APC^min+ male or female progeny were randomly assigned to groups after weaning at 3 weeks. Mice (5˜6 weeks old) were divided into 4 groups: 1) untreated vehicle group (n=12); 2) mice treated with 0.4 mg herbacetin/kg of body weight (n=13); 3) mice treated with 2 mg herbacetin/kg of body weight (n=13); and mice treated with 100 mg difluoromethylornithine (DFMO)/kg of body weight (n=10). Herbacetin, DFMO, or vehicle was injected 3 times a week for 8 weeks.

[2] = tested on: JB6 epidermal cells; test: TPA-induced JB6 cell transformation; type: cell-based, mouse; conditions: 2 weeks
Description: FIGS. 3A-3H. Anticancer effect of herbacetin. (a) The effect of herbacetin on ODC activity in colon cancer cell lines was measured as the release of CO2 from L-[1-C^14] ornithine. […] (b) The effect of herbacetin and DFMO on the growth of colon cancer cells and (c) TPA-induced JB6 cell growth was compared. Cells were incubated for 72 h and growth was estimated using the MTS assay. (d) The effect of herbacetin on anchorage independent HCT116 colon cancer cell growth and (e) TPA-induced JB6 cell transformation was assessed. Cells were incubated for 2 weeks and then colonies were counted using a microscope and the Image-Pro PLUS (v.6) computer software program. The effect of herbacetin on AP-1 reporter activity in (f) HCT116 colon cancer cells and (g) TPA-induced AP-1 reporter activity in JB6 mouse epidermal cells was analyzed using the substrates included in the reporter assay system. Data are represented as means±S.D. of triplicate values from three independent experiments and the asterisk (*) indicates a significant (p<0.05) effect of herbacetin or DFMO compared to untreated or TPA-treated controls. (h) The effect of herbacetin on the phosphorylation of ERK1 and ERK2 in HCT116 colon cancer cells was determined by Western blotting. Similar results were observed from two independent experiments.

[3] = tested on: HCT116 cells; test: HCT116 xenograft in athymic nude mice; type: in vivo, mouse
Description: Athymic nude mice were inoculated in the right flank with HCT116 cells. Tumors were allowed to grow to an average of 40 mm^3 and then mice were divided into four equal groups with the same average tumor volume (FIG. 10). Treatment was initiated on Day 8 and continued to Day 20. […] No difference between treatment with 0.4 mg/kg B.W. herbacetin, 2 mg/kg B.W herbacetin or 200 mg/kg DFMO was observed.

[4] = biological target: T1, ODC (Homo sapiens, UniProt P11926); test: ODC activity in colon cancer cells (HCT116, DLD-1 lysates); type: cell-based; design: endogenous in cells; host or cells: HCT116 and DLD-1 colon cancer cells (lysates); conditions: compared with DFMO
T1 sequence (P11926 1-461): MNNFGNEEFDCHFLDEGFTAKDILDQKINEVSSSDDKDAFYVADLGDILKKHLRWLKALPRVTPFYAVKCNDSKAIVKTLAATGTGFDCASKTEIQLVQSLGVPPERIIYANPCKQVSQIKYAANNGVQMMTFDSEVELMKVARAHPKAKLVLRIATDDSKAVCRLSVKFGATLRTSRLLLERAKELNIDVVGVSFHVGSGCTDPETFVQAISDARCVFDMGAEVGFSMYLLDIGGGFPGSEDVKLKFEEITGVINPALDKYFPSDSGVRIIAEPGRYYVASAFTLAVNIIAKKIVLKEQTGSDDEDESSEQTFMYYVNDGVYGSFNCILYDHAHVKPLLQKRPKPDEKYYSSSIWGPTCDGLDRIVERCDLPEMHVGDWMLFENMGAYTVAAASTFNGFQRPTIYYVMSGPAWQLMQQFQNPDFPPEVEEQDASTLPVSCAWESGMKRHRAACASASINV
Description: FIGS. 5A-5E. The effect of herbacetin on ODC activity was assessed in (a) DLD-1 and (b) HCT116 colon cancer cells. Cell lysates were incubated for 15 min with reaction buffer and different doses of herbacetin or DFMO and then incubated at 37° C. for 1 h. Herbacetin (c) and kaempferol (d) were modeled as allosteric inhibitors with the ODC crystal structure. (e) The effect of herbacetin or kaempferol on ODC activity was assessed using a human ODC recombinant protein. Each reaction was incubated at 37° C. for 1 h and ODC activity was measured as the release of CO2 from L-[1-C^14] ornithine. Data are represented as means±S.D. of triplicate values. The asterisk (*) indicates a significant difference (p<0.05) between herbacetin-treated samples compared to untreated or kaempferol-treated samples.
ODC activity was measured as the release of CO2 from L-[1-C^14] ornithine as previously described ([…]).

[5] = herbacetin 0.4 or 2 mg/kg, DFMO 100 mg/kg, 3 times/week for 8 weeks, vs vehicle

O=c1c(O)c(-c2ccc(O)cc2)oc2c(O)c(O)cc(O)c12 [herbacetin, 3,5,7,8,4′-Pentahydroxyflavone]
anemia (bloody stools) ([1]; 0.4 or 2 mg/kg, 8 weeks): seemed to reduce anemia
tolerability: signs of toxicity, body weight loss ([1]; 8 weeks treatment): without overt signs of toxicity or significant body weight loss
polyp number [1, 5]: significantly suppressed
polyp size [1, 5]: significantly suppressed
overall appearance of mice ([1]; vs vehicle- or DFMO-treated mice): appeared healthier
TPA-induced neoplastic transformation of JB6 epidermal cells [2]: markedly suppressed
potency as therapeutic agent relative to DFMO ([3]; based on concentration): much more potent
tumor volume, comparison between treated groups ([3]; herbacetin 0.4 mg/kg, 2 mg/kg, DFMO 200 mg/kg): No difference
tumor volume, treated groups vs vehicle-treated group ([3]; herbacetin 0.4 or 2 mg/kg B.W., DFMO 200 mg/kg, Day 8 to Day 20): vehicle-treated group were significantly large in volume than any of the three treated groups
suppression of ODC activity [4]: more effectively; also recorded: markedly more effective than DFMO
